Assay results published in ChEMBL document CHEMBL3112450, “Synthesis and in vitro antitumor evaluation of primary amine substituted quinazoline linked benzimidazole” (Bioorg Med Chem Lett, 2014).

What was measured:
Assay type in all cases: functional
HL-60(TB) [1] = assay: Cytotoxicity against human HL-60(TB) cells after 48 hrs by SRB assay; details: HL-60, 48 h
SN12C = assay: Cytotoxicity against human SN12C cells assessed as cell growth at 10^-4 M after 48 hrs by SRB assay; details: read-out: Activity
CAKI-1 [2] = assay: Cytotoxicity against human Caki1 cells assessed as cell growth at 10^-4 M after 48 hrs by SRB assay; details: CAKI-1, 48 h, read-out: Activity
SF-268 [3] = assay: Cytotoxicity against human SF268 cells assessed as cell growth at 10^-7 M after 48 hrs by SRB assay; details: SF-268, 48 h, read-out: Activity
NCI-H322M [4] = assay: Cytotoxicity against human NCI-H322M cells assessed as cell growth at 10^-7 M after 48 hrs by SRB assay; details: read-out: Activity
K562 = assay: Cytotoxicity against human K562 cells assessed as cell growth at 10^-7 M after 48 hrs by SRB assay; details: K562, 48 h, read-out: Activity
HL-60(TB) [5] = assay: Cytotoxicity against human HL-60(TB) cells assessed as cell growth at 10^-7 M after 48 hrs by SRB assay; details: HL-60, 48 h, read-out: Activity
DU-145 = assay: Cytotoxicity against human DU145 cells assessed as cell growth at 10^-8 M after 48 hrs by SRB assay; details: DU-145, 48 h, read-out: Activity
PC-3 [6] = assay: Cytotoxicity against human PC3 cells assessed as cell growth at 10^-8 M after 48 hrs by SRB assay; details: PC-3, 48 h, read-out: Activity
A498 [7] = assay: Cytotoxicity against human A498 cells assessed as cell growth at 10^-4 M after 48 hrs by SRB assay; details: A498, 48 h, read-out: Activity
MDA-MB-435 = assay: Cytotoxicity against human MDA-MB-435 cells assessed as cell growth at 10^-4 M after 48 hrs by SRB assay; details: MDA-MB-435, 48 h, read-out: Activity
SF-268 [8] = assay: Cytotoxicity against human SF268 cells assessed as cell growth at 10^-4 M after 48 hrs by SRB assay; details: SF-268, 48 h, read-out: Activity
NCI-H226 = assay: Cytotoxicity against human NCI-H226 cells assessed as cell growth at 10^-4 M after 48 hrs by SRB assay; details: NCI-H226, 48 h, read-out: Activity
HOP-62 [9] = assay: Cytotoxicity against human HOP62 cells assessed as cell growth at 10^-4 M after 48 hrs by SRB assay; details: HOP-62, 48 h, read-out: Activity
SK-MEL-5 = assay: Cytotoxicity against human SK-MEL-5 cells assessed as cell growth at 10^-8 M after 48 hrs by SRB assay; details: SK-MEL-5, 48 h, read-out: Activity
NCI-H322M [10] = assay: Cytotoxicity against human NCI-H322M cells assessed as cell growth at 10^-8 M after 48 hrs by SRB assay; details: read-out: Activity
HOP-62 [11] = assay: Cytotoxicity against human HOP62 cells assessed as cell growth at 10^-8 M after 48 hrs by SRB assay; details: HOP-62, 48 h, read-out: Activity
A498 [12] = assay: Cytotoxicity against human A498 cells assessed as growth inhibition at 10 uM after 48 hrs by SRB assay; details: A498, 48 h, read-out: GI
MDA-MB-468 = assay: Cytotoxicity against human MDA-MB-468 cells after 48 hrs by SRB assay; details: MDA-MB-468, 48 h
MCF7 = assay: Cytotoxicity against human MCF7 cells after 48 hrs by SRB assay; details: MCF7, 48 h
[13] = Cytotoxicity against human UO31 cells after 48 hrs by SRB assay; details: UO-31, 48 h
CAKI-1 [14] = assay: Cytotoxicity against human Caki1 cells after 48 hrs by SRB assay; details: CAKI-1, 48 h
ACHN [15] = assay: Cytotoxicity against human ACHN cells after 48 hrs by SRB assay
786-0 = assay: Cytotoxicity against human 786-0 cells after 48 hrs by SRB assay; details: 786-0, 48 h
M14 = assay: Cytotoxicity against human M14 cells after 48 hrs by SRB assay; details: M14, 48 h
LOX IMVI [16] = assay: Cytotoxicity against human LOXIMVI cells after 48 hrs by SRB assay
SF-268 [17] = assay: Cytotoxicity against human SF268 cells after 48 hrs by SRB assay; details: SF-268, 48 h
SW-620 [18] = assay: Cytotoxicity against human SW620 cells after 48 hrs by SRB assay; details: SW-620, 48 h
HCT-15 = assay: Cytotoxicity against human HCT15 cells after 48 hrs by SRB assay; details: HCT-15, 48 h
HCC 2998 = assay: Cytotoxicity against human HCC2998 cells after 48 hrs by SRB assay; details: HCC 2998, 48 h
TK-10 = assay: Cytotoxicity against human TK10 cells assessed as cell growth at 10^-6 M after 48 hrs by SRB assay; details: TK-10, 48 h, read-out: Activity
ACHN [19] = assay: Cytotoxicity against human ACHN cells assessed as cell growth at 10^-6 M after 48 hrs by SRB assay; details: read-out: Activity
[20] = Cytotoxicity against human NCI-ADR-RES cells assessed as cell growth at 10^-6 M after 48 hrs by SRB assay; details: read-out: Activity
[21] = Cytotoxicity against human OVCAR5 cells assessed as cell growth at 10^-6 M after 48 hrs by SRB assay; details: OVCAR-5, 48 h, read-out: Activity
LOX IMVI [22] = assay: Cytotoxicity against human LOXIMVI cells assessed as cell growth at 10^-6 M after 48 hrs by SRB assay; details: read-out: Activity
Malme-3M = assay: Cytotoxicity against human MALME-3M cells assessed as cell growth at 10^-6 M after 48 hrs by SRB assay; details: read-out: Activity
SF-539 = assay: Cytotoxicity against human SF539 cells assessed as cell growth at 10^-6 M after 48 hrs by SRB assay; details: SF-539, 48 h, read-out: Activity
SW-620 [23] = assay: Cytotoxicity against human SW620 cells assessed as cell growth at 10^-6 M after 48 hrs by SRB assay; details: SW-620, 48 h, read-out: Activity
PC-3 [24] = assay: Cytotoxicity against human PC3 cells assessed as cell growth at 10^-7 M after 48 hrs by SRB assay; details: PC-3, 48 h, read-out: Activity
[25] = Cytotoxicity against human NCI-ADR-RES cells assessed as cell growth at 10^-7 M after 48 hrs by SRB assay; details: read-out: Activity
[26] = read-out: LC50 (the source's name)

C=CCn1c(C)nc2ccc(Nc3nc(Nc4ccc(F)cc4)nc4ccccc34)cc21
GI50 (HL-60(TB) [1]): 4.95 µM
LC50 (HL-60(TB) [1]): > 100 µM
TGI (HL-60(TB) [1]): 23.3 µM
growth at 100 µM (SN12C): -49%
growth at 100 µM (CAKI-1 [2]): -53%
growth at 0.1 µM (SF-268 [3]): 90%
growth at 0.1 µM (NCI-H322M [4]): 96%
growth at 0.1 µM (K562): 103%
growth at 0.1 µM (HL-60(TB) [5]): 100%
growth at 0.01 µM (DU-145): 100%
growth at 0.01 µM (PC-3 [6]): 98%
growth at 100 µM (A498 [7]): -68%
growth at 100 µM (MDA-MB-435): -53%
growth at 100 µM (SF-268 [8]): -59%
growth at 100 µM (NCI-H226): -5%
growth at 100 µM (HOP-62 [9]): -46%
growth at 0.01 µM (SK-MEL-5): 92%
growth at 0.01 µM (NCI-H322M [10]): 87%
growth at 0.01 µM (HOP-62 [11]): 93%
inhibition of growth at 10 µM (A498 [12]): 40%
GI50 (MDA-MB-468): 1.23 µM
TGI (MDA-MB-468): 2.6 µM
GI50 (MCF7): 1.48 µM
TGI (MCF7): 3.44 µM
GI50 [13]: 4.53 µM
LC50 (concentration causing 50% net cell kill) [13]: 52.8 µM
TGI [13]: 19.3 µM
GI50 (CAKI-1 [14]): 6.86 µM
LC50 (concentration causing 50% net cell kill) (CAKI-1 [14]): 92.6 µM
TGI (CAKI-1 [14]): 27.5 µM
GI50 (ACHN [15]): 1.99 µM
LC50 (ACHN [15]): 9.33 µM
TGI (ACHN [15]): 4.31 µM
GI50 (786-0): 7.44 µM
TGI (786-0): 23.8 µM
CC50 (786-0; [26]): 65.1 µM
GI50 (M14): 3.26 µM
TGI (M14): 14.2 µM
CC50 (M14; [26]): > 100 µM
GI50 (LOX IMVI [16]): 4.36 µM
LC50 (LOX IMVI [16]): > 100 µM
TGI (LOX IMVI [16]): 23 µM
GI50 (SF-268 [17]): 8.69 µM
LC50 (50% lethal concentration) (SF-268 [17]): 82.3 µM
TGI (SF-268 [17]): 27.8 µM
GI50 (SW-620 [18]): 2.8 µM
LC50 (concentration killing 50% of cells) (SW-620 [18]): > 100 µM
TGI (SW-620 [18]): 10.7 µM
GI50 (HCT-15): 2.84 µM
LC50 (HCT-15): > 100 µM
TGI (HCT-15): 10.4 µM
GI50 (HCC 2998): 8.87 µM
LC50 (50% lethal concentration) (HCC 2998): 58.2 µM
TGI (HCC 2998): 23.5 µM
growth at 1 µM (TK-10): 100%
growth at 1 µM (ACHN [19]): 94%
growth at 1 µM [20]: 96%
growth at 1 µM [21]: 92%
growth at 1 µM (LOX IMVI [22]): 96%
growth at 1 µM (Malme-3M): 101%
growth at 1 µM (SF-539): 89%
growth at 1 µM (SW-620 [23]): 89%
growth at 0.1 µM (PC-3 [24]): 92%
growth at 0.1 µM [25]: 97%

C=CCn1c(C)nc2ccc(Nc3nc(Sc4ccc(N)cc4)nc4ccccc34)cc21
inhibition of growth at 10 µM (A498 [12]): 50%
